Test results from patent publication US20240024299A1, “USE OF DRUGS THAT STIFFEN MATURE GAMETOCYTES FOR BLOCKING TRANSMISSION OF PLASMODIUM PARASITES” (INSERM (INSTITUT NATIONAL DE LA SANTÉ ET DE LA RECHERCHE …, priority 2020, published 2024).

What was measured:
[1] = test system: P. falciparum gametocytes; assay: microsphiltration (spleen-mimetic microfilters) retention / stiffening of mature gametocytes, dose-response; type: cell-based, Plasmodium falciparum; settings: for IC50: Plasmodium falciparum, mature gametocytes, retention in microsphiltration, read-out: stiffening effect IC50; for activity by readout (readout 1 male and female gametocytes staining vs readout 2 specific female gametocytes staining): dose-response curves, data not shown
Source text: FIG. 1. Screening progression cascade. ReFrame library (12,805 compounds), Kinase Inhibitors Box (350 compounds) and Pathogen Box (400 compounds) were screened with “microsphiltration” against P. falciparum gametocytes. Hits from primary screening were further selected by dose-response analysis (DRA). Confirmed 82 hits were divided in 7 groups, based on their activity and molecular target (data not shown). Hits repartition is shown in parenthesis, along with the name of one representative hit for each group. A score was assigned to each DRA confirmed hit, based on route of administration, safety in human clinical trials, pharmacokinetic and affordability for developing countries, leading to final selection of 3 hits for further in vitro and in vivo confirmation experiments.
FIG. 2. Representative single 384-wells plate scatterplots of primary screening. Each well of a screening plate is loaded with pre-spotted compounds while two columns are left for controls. They are represented as follows: empty circles for non-selected compounds and black circles for hits (352 wells), black squares for negative control (DMSO 0.05%, 16 wells), black squares for main positive control (NITD609 0.5 μM, 8 wells), light black empty squares for retention positive control (Calyculin A 75 nM, 6 wells), black squares for killing control (Gentian Violet 50 μM, 2 wells). For each well, killing and retention values are calculated and distributed in a “xy” graph. Two graphs are made for each plate: one using male and female gametocytes imaging (“readout 1”, left panel) and one using specific female gametocytes imaging (“readout 2”, right panel). For each graph, a linear regression (solid line) is tracked with 95% confidence interval (dashed lines). The compounds beyond the upper confidence interval in both readouts are identified as hits. A) Plate number 15 of ReFRAME library: 8 hits with readout 1, 11 hits with readout 2, 4 hits (shared between the two readouts) finally identified. B) Plate number 9 of ReFRAME library: 7 hits with readout 1, 11 hits with readout 2, 5 hits finally individuated, including NITD609 (highlighted with an arrow). In few cases, compounds with only killing effect were added to hitlist.
FIG. 4. Examples of dose-response curves (DRCs) of confirmed hits. Every hit from primary screening has been re-tested in duplicate (ReFrame library) and in triplicate (Kinase Inhibitors and Pathogen Box libraries) for dose-response, starting from 5 (10 μM for ReFrame hits) to 5 nM. For each of them, a DRC for killing and retention was tracked and IC50 was calculated (one for readout 1, male and female gametocytes staining, one for readout 2, specific female gametocytes staining). Error bars denote the standard deviation. The first curve is referred to killing effect and the second curve to retention effect normalized on DMSO negative control. Chemical structure of the compound is represented for each DRC. Hits and readouts have been selected among the ones with lowest variability, with the addition of TD-6450 and L-THP due to their high priority. […] Readout 2 has been selected for all of them except APPCL. […] Readout 2 used for all of them. […] Readout 2 used for all of them except TD-6450.

[2] = test system: P. falciparum gametocytes; assay: killing of mature gametocytes in the microsphiltration screen, dose-response; type: cell-based; settings: Plasmodium falciparum, read-out: killing effect IC50
Source text: FIG. 1. Screening progression cascade. ReFrame library (12,805 compounds), Kinase Inhibitors Box (350 compounds) and Pathogen Box (400 compounds) were screened with “microsphiltration” against P. falciparum gametocytes. Hits from primary screening were further selected by dose-response analysis (DRA). Confirmed 82 hits were divided in 7 groups, based on their activity and molecular target (data not shown). Hits repartition is shown in parenthesis, along with the name of one representative hit for each group. […]
FIG. 2. […] For each well, killing and retention values are calculated and distributed in a “xy” graph. Two graphs are made for each plate: one using male and female gametocytes imaging (“readout 1”, left panel) and one using specific female gametocytes imaging (“readout 2”, right panel). […] The compounds beyond the upper confidence interval in both readouts are identified as hits. A) Plate number 15 of ReFRAME library: 8 hits with readout 1, 11 hits with readout 2, 4 hits (shared between the two readouts) finally identified. B) Plate number 9 of ReFRAME library: 7 hits with readout 1, 11 hits with readout 2, 5 hits finally individuated, including NITD609 (highlighted with an arrow). […]
FIG. 4. […] For each of them, a DRC for killing and retention was tracked and IC50 was calculated (one for readout 1, male and female gametocytes staining, one for readout 2, specific female gametocytes staining). […]

`COc1cc2c(cc1OC)[C@@H]1Cc3ccc(OC)c(OC)c3CN1CC2` [L-THP, (13aS)-2,3,9,10-tetramethoxy-6,8,13,13a-tetrahydro-5H-isoquinolino[2,1-b]isoquinoline] gave an IC50 [1] of 5 nM.
`C[C@H]1Cc2c([nH]c3cc(Cl)c(F)cc23)[C@@]2(N1)C(=O)Nc1ccc(Cl)cc12` [NITD609, (1R,3S)-5′,7-Dichloro-6-fluoro-3-methyl-spiro[2,3,4,9-tetrahydropyrido[3,4-b]indole-1,3′-indoline]-2′-one] was tested, and the IC50 [1] was 50 nM and the IC50 [2] was 100 nM.
`CC(C)(CN)c1nc(-c2ccc(Cl)c(O)c2)c(-c2ccnc(N)n2)[nH]1` [MMV030734] was tested, and the “activity by readout (readout 1 male and female gametocytes staining vs readout 2 specific female gametocytes staining)” value [1] was “specifically actives on readout 2”.
For `O=C(NCCN1CCCC1)c1cc(NCCCCN2CCC(F)(F)CC2)nc2ccc(Cl)cc12` [MMV667494], the “activity by readout (readout 1 male and female gametocytes staining vs readout 2 specific female gametocytes staining)” value [1] was “specifically actives on readout 2”.
In the case of `CNC(=O)N1C[C@@H](C)N(c2ccc(C(=O)Nc3ccc(-c4ccc(-c5c[nH]c([C@@H]6CCCN6C(=O)[C@@H](NC(=O)OC)C(C)C)n5)cc4)c(OC(F)(F)F)c3)cn2)C[C@@H]1C` [TD-6450, carbamic acid, N-[(1S)-1-[[(2S)-2-[5-[4′-[[[6-[(2R,5S)-2,5-dimethyl-4-[(methylamino)carbonyl]-1-piperazinyl]-3-pyridinyl]carbonyl]amino]-2′-(trifluoromethoxy) [1,1′-biphenyl]-4-yl]-1H-imidazol-2-yl]-1-pyrrolidinyl]carbonyl]-2-methylpropyl]-, methyl ester], the IC50 [1] is reported as 600 nM.
